Source: patent US12037344B2, “NLRP3 modulators” (INNATE TUMOR IMMUNITY, INC., priority 2018, dated 2024)
Like-named read-outs stand apart in the source and are kept apart here.

What was measured:
THP-1 cells = experiment: Measurement of IL-1β production, hTRF protocol (second alternative procedure), THP-1 cells; type: cell-based, human
Outline: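 THP-1 cells differentiated overnight with 50 ng/ml PMA, then plated at 50,000 cells/well in RPMI with 2% FBS onto serial compound dilutions (top final concentration 10 μM) for 2 hours at 37° C. Supernatant IL-1β measured by hTRF (antibodies at 1:40, overnight at 4° C), read at 665/615 nm against a standard curve.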

TLR8 = target: T1, TLR8 (Homo sapiens, UniProt Q9NR97); experiment: In vitro human TLR8 binding reporter assay (HEK-Blue, NF-kB/AP1-inducible SEAP); type: cell-based; conditions: read-out: TLR8 Agonist EC50
T1 construct: human HEK-Blue cells co-expressing a TLR7 or TLR8 gene
T1 sequence (Q9NR97 27-1041): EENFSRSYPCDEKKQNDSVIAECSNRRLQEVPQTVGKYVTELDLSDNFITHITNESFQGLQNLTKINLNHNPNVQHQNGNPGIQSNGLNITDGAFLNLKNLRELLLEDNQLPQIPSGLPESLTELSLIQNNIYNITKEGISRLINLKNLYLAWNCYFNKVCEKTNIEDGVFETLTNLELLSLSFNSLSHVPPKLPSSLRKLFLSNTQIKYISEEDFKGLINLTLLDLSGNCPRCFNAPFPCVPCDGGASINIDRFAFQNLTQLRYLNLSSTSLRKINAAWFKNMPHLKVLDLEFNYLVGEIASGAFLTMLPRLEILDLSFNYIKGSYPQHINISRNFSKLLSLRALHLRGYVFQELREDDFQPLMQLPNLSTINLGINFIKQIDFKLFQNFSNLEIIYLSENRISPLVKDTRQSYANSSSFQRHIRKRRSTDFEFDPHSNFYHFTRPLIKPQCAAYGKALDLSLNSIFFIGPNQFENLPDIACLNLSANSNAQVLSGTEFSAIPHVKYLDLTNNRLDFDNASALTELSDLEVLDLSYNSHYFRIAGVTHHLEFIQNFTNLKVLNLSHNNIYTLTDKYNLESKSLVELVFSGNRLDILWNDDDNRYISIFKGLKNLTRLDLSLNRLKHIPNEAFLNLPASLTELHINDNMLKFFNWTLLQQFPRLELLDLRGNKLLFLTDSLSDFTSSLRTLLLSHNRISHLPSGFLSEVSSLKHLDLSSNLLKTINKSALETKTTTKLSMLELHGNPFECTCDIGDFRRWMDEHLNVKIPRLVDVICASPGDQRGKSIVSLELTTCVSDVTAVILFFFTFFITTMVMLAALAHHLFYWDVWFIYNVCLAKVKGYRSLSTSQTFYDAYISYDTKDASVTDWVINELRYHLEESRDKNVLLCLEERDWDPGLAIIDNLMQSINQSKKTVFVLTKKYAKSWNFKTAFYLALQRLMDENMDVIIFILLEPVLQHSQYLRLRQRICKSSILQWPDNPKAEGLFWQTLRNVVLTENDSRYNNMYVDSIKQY
Outline: (§1)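 HEK-Blue cells expressing human TLR7 or TLR8 with NF-kB/AP1-inducible SEAP reporter, plated 24 h, then compound-treated 18 h at 37° C, 5% CO2. EC50 normalized to 100% Ymax set by 50 μM reference standard.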

TLR7 = target: T2, TLR7 (Homo sapiens, UniProt Q9NYK1); experiment: In vitro human TLR7 binding reporter assay (HEK-Blue, NF-kB/AP1-inducible SEAP); type: cell-based; conditions: read-out: TLR7 Agonist EC50
T2 construct: human HEK-Blue cells co-expressing a TLR7 or TLR8 gene
T2 sequence (Q9NYK1 27-1049): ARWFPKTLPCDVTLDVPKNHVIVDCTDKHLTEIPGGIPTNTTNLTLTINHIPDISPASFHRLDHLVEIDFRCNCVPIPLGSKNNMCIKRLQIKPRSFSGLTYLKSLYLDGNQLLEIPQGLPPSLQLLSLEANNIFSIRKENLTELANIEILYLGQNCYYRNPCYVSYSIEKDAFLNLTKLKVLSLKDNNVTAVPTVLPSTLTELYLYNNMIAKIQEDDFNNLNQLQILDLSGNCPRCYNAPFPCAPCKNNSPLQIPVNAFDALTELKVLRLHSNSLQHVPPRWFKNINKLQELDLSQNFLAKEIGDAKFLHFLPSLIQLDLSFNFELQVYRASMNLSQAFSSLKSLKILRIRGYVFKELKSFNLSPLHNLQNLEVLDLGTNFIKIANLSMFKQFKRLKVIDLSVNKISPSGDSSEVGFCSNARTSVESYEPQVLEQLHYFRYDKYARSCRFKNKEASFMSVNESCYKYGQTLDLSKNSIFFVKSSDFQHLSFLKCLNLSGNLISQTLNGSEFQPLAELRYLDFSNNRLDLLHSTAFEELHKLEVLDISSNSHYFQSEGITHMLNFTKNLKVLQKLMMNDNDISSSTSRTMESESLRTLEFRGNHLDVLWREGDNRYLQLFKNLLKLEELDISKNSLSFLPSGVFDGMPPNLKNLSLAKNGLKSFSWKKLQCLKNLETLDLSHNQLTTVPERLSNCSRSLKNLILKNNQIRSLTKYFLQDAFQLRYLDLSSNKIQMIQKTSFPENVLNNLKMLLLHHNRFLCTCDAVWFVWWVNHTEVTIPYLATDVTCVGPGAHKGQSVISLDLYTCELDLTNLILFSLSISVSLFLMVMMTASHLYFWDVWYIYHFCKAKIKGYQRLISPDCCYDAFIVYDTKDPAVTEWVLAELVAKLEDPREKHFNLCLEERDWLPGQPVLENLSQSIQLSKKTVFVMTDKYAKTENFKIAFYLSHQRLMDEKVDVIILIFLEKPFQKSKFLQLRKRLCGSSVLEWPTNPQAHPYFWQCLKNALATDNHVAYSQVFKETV
Outline: as §1

[1] = Homo sapiens, THP-1, IL-1β production, human, read-out: NLRP3 hILIB EC50
[2] = Homo sapiens, THP-1, IL-1β production, human cells, read-out: NLRP3 hILIB EC50
[3] = IL-1β production, human, read-out: NLRP3 hILIB EC50

SMILES	EC50 (THP-1 cells; [1]) [µM]	EC50 (TLR8; activity range class) [µM]	EC50 (TLR7; activity range class) [µM]	EC50 (THP-1 cells; [2]) [µM]	EC50 (TLR8; activity range) [µM]	EC50 (TLR7; activity range) [µM]	EC50 (THP-1 cells; Homo sapiens, THP-1, read-out: NLRP3 hILIB EC50) [µM]	EC50 (THP-1 cells; [3]) [µM]
Nc1nc2cc(-n3cccn3)ccc2c2cn(C[C@H]3CCC(=O)N3)nc12 [Example 16]	11.3	> 100	20 to 100					
Nc1nc2cc(-c3ccn[nH]3)ccc2c2[nH]c(CCO)cc12 [Example 442]				0.19	> 100	> 100		
COCCn1cc2c(N)nc3cc(-n4cccn4)ccc3c2n1 [Example 247, 2-(2-methoxyethyl)-7-(1H-pyrazol-1-yl)-2H-pyrazolo[4,3-c]quinolin-4-amine]	0.44	> 100	> 100					
CC(=O)N1CCN(CCn2cc3c(N)nc4cc(-c5ccn[nH]5)ccc4c3n2)CC1 [Example 276]	31.7	> 100	> 100					
CC(C)S(=O)(=O)NCCCn1cc2c(N)nc3cc(-c4ccn[nH]4)ccc3c2n1 [Example 588]				10.9	> 100	> 100		
COC[C@@H](O)Cn1cc2c(N)nc3cc(-c4cc[nH]n4)ccc3c2n1 [Example 373]	1.25	> 100	> 100					
CS(=O)(=O)NCCn1cc2c(n1)c(N)nc1cc(-c3cc[nH]n3)ccc12 [Example 113, N-{2-[4-amino-7-(1H-pyrazol-3-yl)-2H-pyrazolo[3,4-c]quinolin-2-yl]ethyl}methanesulfonamide]	3.83	> 100	20 to 100					
CC(C)C(O)Cn1cc2c(N)nc3cc(-c4cc[nH]n4)ccc3c2n1 (stereo not drawn) [Example 374]	0.65	> 100	> 100					
CCN(CCn1cc2c(n1)c(N)nc1cc(-c3cc[nH]n3)ccc12)C(C)=O [Example 29, N-[2-[4-amino-7-(1H-pyrazol-3-yl)-2H-pyrazolo[3,4-c]quinolin-2-yl]ethyl]-N-ethylacetamide]		> 100	> 100				6.01	
CC1(O)CCCC1n1cc2c(N)nc3cc(-c4cc[nH]n4)ccc3c2n1 (single isomer, unassigned) [Example 345]		> 100	> 100					2.03
Nc1nc2cc(-c3cc[nH]n3)ccc2c2c1cnn2CCc1ccccn1 [Example 227]	1.81	> 100	> 100					
Nc1nc2cc(-c3cc[nH]n3)ccc2c2cn(CCNC(=O)c3csc(Cl)n3)nc12 [Example 88]	0.13	20 to 100	20 to 100					
Nc1nc2cc(-c3cc[nH]n3)ccc2c2nn(C3CCOC3)cc12 (single isomer, unassigned) [Example 239]		> 100	> 100					0.21
CC(=O)NCCn1cc2c(N)nc3cc(-c4cc[nH]n4)ccc3c2n1 [Example 290]	0.87	> 100	> 100					
Nc1nc2cc(-c3cc[nH]n3)ccc2c2nn(C[C@@H]3CCCO3)cc12 [Example 330]	0.17	> 100	> 100					
CC(C)(O)Cn1cc2c(N)nc3cc(-c4ccn[nH]4)ccc3c2n1 [Example 283]	0.12	> 100	> 100					
